Patent US6221865A, “Inhibitors of protein isoprenyl transferases” (priority 1998, dated 2001)
Structures can show the parent of a compound that is named as a salt.

Molecular target: T1, protein farnesyltransferase (Rattus norvegicus, UniProt Q02293+Q04631)
T1 construct: The enzyme is purified according to Reiss, Y., et al., Cell, 62: 81-88 (1990), utilizing steps one through three; from tissue; host or cells: rat brain
Test: Inhibition of farnesyltransferase (scintillation proximity assay, rat brain enzyme, biotin-K Ras B fragment substrate)
Format: biochemical
Details: for % inhibition of farnesyltransferase at 1 × 10^-7 M: 1 × 10^-7 M (Table 3); for % inhibition of farnesyltransferase at 1 × 10^-6 M / inhibition at 1 µM: 1 × 10^-6 M (Table 2); for inhibition at 1 µM: read-out: % inhibition of farnesyltransferase at 1 × 10^-6 M
Outline: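 Enzyme from rat brain, partly purified (steps one to three), assayed by SPA kit using 0.1 mM final biotin-K Ras B peptide as prenyl acceptor rather than biotin-lamin. Activity given as percent inhibition.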

T1 sequence (Q02293 whole entry, one chain of several): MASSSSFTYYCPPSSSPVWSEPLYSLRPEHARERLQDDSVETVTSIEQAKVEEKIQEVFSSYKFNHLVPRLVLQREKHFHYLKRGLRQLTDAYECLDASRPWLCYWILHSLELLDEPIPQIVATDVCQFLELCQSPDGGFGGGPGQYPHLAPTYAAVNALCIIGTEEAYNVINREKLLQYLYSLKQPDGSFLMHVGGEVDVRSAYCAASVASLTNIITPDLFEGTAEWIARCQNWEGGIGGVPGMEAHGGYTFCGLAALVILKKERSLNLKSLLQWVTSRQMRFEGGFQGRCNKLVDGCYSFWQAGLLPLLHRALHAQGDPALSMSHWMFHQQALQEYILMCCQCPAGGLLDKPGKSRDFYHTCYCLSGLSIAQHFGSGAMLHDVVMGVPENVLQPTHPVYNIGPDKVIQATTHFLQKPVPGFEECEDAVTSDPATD

CSCC[C@H](NC(=O)c1ccc(CN[C@H](CO)C2CCCCC2)cc1-c1ccccc1C)C(=O)O [Example 520]
% inhibition of farnesyltransferase at 1 × 10^-7 M: 97%

CSCC[C@H](NC(=O)c1ccc(CNCCN(C(C)C)C(C)C)cc1-c1ccccc1)C(=O)O [Example 636]
% inhibition of farnesyltransferase at 1 × 10^-6 M: 72%

CSCC[C@H](NC(=O)c1ccc(COCc2cccc(N(C)C)c2)cc1-c1ccccc1C)C(=O)O [Example 941]
% inhibition of farnesyltransferase at 1 × 10^-7 M: 90%

CSCC[C@H](NC(=O)c1ccc(CNc2cccc(CC(=O)O)c2)cc1-c1ccccc1)C(=O)O [Example 684]
% inhibition of farnesyltransferase at 1 × 10^-5 M (1 × 10^-5 M (Table 1)): 48%

CSCC[C@H](NC(=O)c1ccc(CSCc2ccc(C)cc2)cc1-c1ccccc1C)C(=O)[O-].[Li+] [Example 556]
% inhibition of farnesyltransferase at 1 × 10^-6 M: 99%

CCOC(=O)N1CCC(NCc2ccc(C(=O)N[C@@H](CCSC)C(=O)[O-])c(-c3ccccc3C)c2)CC1.[Li+] [Example 806]
% inhibition of farnesyltransferase at 1 × 10^-6 M: 72%

CSCC[C@H](NC(=O)c1ccc(CN2CCC[C@H]2COc2ccccc2)cc1-c1ccccc1C)C(=O)O [Example 991, N-[4-(2-phenoxymethylpyrrolidin-1-ylmethyl)-2-(2-methylphenyl)benzoyl]methionine]
inhibition at 0.01 µM (read-out: % inhibition of farnesyltransferase at 1 × 10^-8 M, 1 × 10^-8 M (Table 4)): 69%

CSCC[C@H](NC(=O)c1ccc(CN(C)CCC2CCCCC2)cc1-c1ccccc1C)C(=O)[O-].[Li+] [Example 608]
% inhibition of farnesyltransferase at 1 × 10^-8 M (1 × 10^-8 M (Table 4)): 91%

CSCC[C@H](NC(=O)c1ccc(/C=C/c2ccc(Oc3ccccc3)nn2)cc1-c1ccccc1C)C(=O)O [Example 810, N-[4-(2-(3-phenoxypyridazin-6-yl)ethen-1-yl)-2-(2-methylphenyl)benzoyl]methionine lithium salt]
inhibition at 1 µM: 89%

CSCC[C@H](NC(=O)c1ccc(CN(C(C)C)C2(CC3CCCCC3)CC2)cc1-c1ccccc1C)C(=O)O [Example 326]
inhibition at 1 µM: 91%
